Laboratory results reported in publication PMC9718795, “Caffeic acid N-[3,5-bis(trifluoromethyl)phenyl] amide as a non-steroidal inhibitor for steroid 5α-reductase type 1 using a human keratinocyte cell-based assay and molecular dynamics” (Scientific Reports, 2022).

Experiments:
[1] = tested on: SRD5A1 protein expression; experiment: Western blot of SRD5A1 protein expression in HaCaT cells; assay type: cell-based, human
Protocol: HaCaT cells (1 × 10^5 cells/well in 6-well plates) were cultured in DMEM with or without compound 4 (0–2.5 µM) for 12 and 24 h. The cells were lysed with RIPA buffer containing 1% protease inhibitor and 1% phosphatase inhibitor on ice for 45 min. Then, the total protein from each sample was determined by bicinchoninic acid (BCA) protein assay kit (Cat No. 23225, Thermo Fisher Scientific, Rockford, IL, USA). The equal amount (40 µg) of protein sample was mixed with loading buffer and heated at 95 °C for 5 min before loaded to 10% sodium dodecyl sulfate–polyacrylamide gels (SDS-PAGE). The proteins were transferred onto PVDF membrane, which was further blocked with 5% BSA in TBST (25 mmol/L Tris–HCl; pH 7.4, 125 mmol/L NaCl, 0.1% Tween 20) at room temperature for 1 h. The primary antibody specific to SRD5A1 (1TFS-AB-PA575919, Thermo Fisher Scientific, Rockford, IL, USA) in dilution 1:1000 was added onto the membrane and incubated overnight at 4 °C. Then the membrane was washed 3 times × 7 min with TBST following with the immersion in the specific secondary antibody conjugated with horseradish peroxidase (HRP) for 1 h at room temperature. The signal of target protein was determined by using chemiluminescence HRP substrate (Thermo Scientific, Rockford, IL, USA) and the intensity of target protein was analyzed by analyst/PC densitometric software (Bio-Rad, Hercules, CA, USA).

[2] = target: T1, steroid 5α-reductase type 1 (SRD5A1) (Homo sapiens, UniProt P18405); experiment: HaCaT cell-based SRD5A1 inhibitory assay with direct DHT detection by HPTLC
T1 construct: HaCaTs-produced SRD5A1 smoothly converted testosterone to DHT; endogenous in cells; host or cells: HaCaT human keratinocytes
T1 sequence (P18405 1-259): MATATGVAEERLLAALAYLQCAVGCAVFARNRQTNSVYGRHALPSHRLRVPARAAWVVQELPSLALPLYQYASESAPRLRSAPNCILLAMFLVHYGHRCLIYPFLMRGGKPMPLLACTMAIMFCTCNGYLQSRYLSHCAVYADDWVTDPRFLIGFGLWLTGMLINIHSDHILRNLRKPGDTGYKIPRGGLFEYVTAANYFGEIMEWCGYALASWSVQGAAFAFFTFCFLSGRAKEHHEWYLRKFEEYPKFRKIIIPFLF

## O=C(C=Cc1ccc(O)c(O)c1)Nc1cc(C(F)(F)F)cc(C(F)(F)F)c1 [Compound 4, 3-(3,4-dihydroxyphenyl)-N-[3,5-bis (trifluoromethyl)phenyl]-2-propenamide]
[1]; 2.5 µM, 24 h
  Suppression of SRD5A1 protein expression relative to untreated control: > 50%
[1]; 1 and 2.5 µM, 24 h
  SRD5A1 protein expression relative to control: significant decrease
[1]; 12 h
  SRD5A1 protein level relative to control: no significant changes
[2]; 0.2–2.5 µM, HaCaT
  Concentration dependence of inhibition of DHT production: concentration-dependent inhibition
[2]; HaCaT cells, 10 µM testosterone, 24 h, read-out: IC50 of inhibition of DHT production (SRD5A1 activity)
  IC50: 1440 ± 130 nM
[2]; HaCaT, 2.5 µM, 12 h, read-out: Inhibition of SRD5A1 enzyme activity
  inhibition at 2.5 µM: ~50%
[2]; HaCaT, compound 1.0 µM, HaCaT, 24 h, read-out: % Inhibition of DHT production ± SD
  inhibition at 1 µM: 46%
[2]; IC50 1.44 vs 4.45 µM
  Potency of DHT inhibition relative to avicequinone C: 3 times
[2]; compound 1.0 µM, HaCaT, 24 h, 1 µM
  % Inhibition of DHT production ± SD: 45.67 ± 3.57%
